Measured values from the Kinase Knowledgebase extract (Sharma et al. 2016).

What follows are compounds tested against CDK2 (UniProt P24941) (assay: Enzyme Assay). Conditions: not given.

IC50 [µM]	SMILES
> 100	Nc1nc(OCCc2ccccc2)c2nc[nH]c2n1
> 100	COC(COc1nc(N)nc2[nH]cnc12)(OC)c1ccccc1
> 100	C=CCOc1nc(N)nc2[nH]cnc12
> 100	C=C(C)C1CC=C(COc2nc(N)nc3[nH]cnc23)CC1 (stereo not drawn)
> 100	c1nc(OCC2CCCCO2)c2nc[nH]c2n1 (stereo not drawn)
> 100	Nc1nc(OCc2cccc3ccccc23)c2nc[nH]c2n1
> 100	Nc1nc(OCC(O)CO)c2nc[nH]c2n1 (stereo not drawn)
> 100	Nc1nc(OCC2CCCCO2)c2nc[nH]c2n1 (stereo not drawn)
> 100	CC(C)C(=O)COc1nc(N)nc2[nH]cnc12
> 100	Nc1nc(OCC2COC3(CCCCC3)O2)c2nc[nH]c2n1 (stereo not drawn)

The remaining lines, values behind:

SMILES	IC50 [µM]
CC1(C)OC2OC(COc3nc(N)nc4[nH]cnc34)C3OC(C)(C)OC3C2O1 (stereo not drawn)	> 100
COC1OC(COc2nc(N)nc3[nH]cnc23)C2OC(C)(C)OC12 (stereo not drawn)	> 100
C=CCOc1ncnc2[nH]cnc12	> 100
COCC(COc1nc(N)nc2[nH]cnc12)OC (stereo not drawn)	> 100
CC1(C)OCC(COc2nc(N)nc3[nH]cnc23)O1 (stereo not drawn)	> 100
CC(C)C1(COc2nc(N)nc3[nH]cnc23)OCCO1	> 100
Nc1nc(OCC2CCCC2)c2nc[nH]c2n1	> 100
Nc1nc(OCc2ccc3ccccc3c2)c2nc[nH]c2n1	> 100
Nc1nc(OCC2COc3ccccc3O2)c2nc[nH]c2n1 (stereo not drawn)	> 100
Nc1nc(OCC23CC4CC(CC(C4)C2)C3)c2nc[nH]c2n1	> 100
CCC(COc1nc(N)nc2[nH]cnc12)(OC)OC	> 100
CCOC(C)(COc1nc(N)nc2[nH]cnc12)OCC	> 100

Same assay, conditions: concentration not given here

inhibition [%]	SMILES
6	Cc1ccc(N=Nc2c(N)nc(N)nc2OCC2CCCCC2)cc1
